test system: HCV replicon; experiment: Cell-Based HCV Replicon Assay; conditions: Hepatitis C virus, 72 h; Table IV; replicon cells, day 3, real time PCR; EC90 = concentration for ΔCT=3.2 over baseline; read-out: EC90
In short: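 Replicon cells, 5000/well, treated 3 days with 10 serial 2-fold dilutions (top 25 μM to 1 μM) in 0.5% DMSO, 10% FBS. Replicon RNA measured by multiplex Taqman RT-PCR (NS5B amplicon, GAPDH control); EC50/EC90 = concentration giving ΔCT of 1/3.2 over baseline from sigmoid fit.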

Row | Structure (SMILES) | EC90 [µM]
1 | Cc1nc(NCC2CC2)nc(N[C@@H]2C[C@H](C(F)F)[C@@H](O)[C@H]2O)c1-c1nc2c(C)nccc2s1 [Example 3036] | 0.044

same assay, conditions: Hepatitis C virus, 72 h; Table V, cells printed as numeric bound instead of code; replicon cells, day 3, real time PCR; read-out: EC90 (uM) range

Row | Structure (SMILES) | EC90 [µM]
2 | CS(=O)(=O)C[C@H]1C[C@@H](Nc2nc(NC3CCC3)ncc2-c2nc3c(C4CC4)nccc3s2)[C@H](O)[C@@H]1O [Example 4922] | > 0.3

same assay, conditions: Hepatitis C virus, 72 h; Table V, class codes; replicon cells, day 3, real time PCR; EC90 = concentration for ΔCT=3.2 over baseline; read-out: EC90 (uM) range

Row | Structure (SMILES) | EC90 [µM]
3 | Cc1nc(N[C@H](C)c2ccc(OC(F)(F)F)cc2)nc(N[C@@H]2C[C@H](C(=O)NC(C)(C)C)[C@@H](O)[C@H]2O)c1-c1nc2c(C3CC3)nccc2s1 [Example 4947] | < 0.5
4 | COCCNc1nc(C)c(-c2nc3cnc(C)cc3s2)c(N[C@@H]2C[C@H](CO)[C@@H](O)[C@H]2O)n1 [Example 4946] | < 0.5
5 | Cc1nccc2sc(-c3cnc(NCCSC(C)(C)C)nc3N[C@@H]3C[C@H](C(C)(C)O)[C@@H](O)[C@H]3O)nc12 [Example 4940] | < 0.5
6 | COCCNc1ncc(-c2nc3c(C4CC4)nccc3s2)c(N[C@@H]2C[C@H](CS(C)(=O)=O)[C@@H](O)[C@H]2O)n1 [Example 4916] | 0.5 to 5
7 | Cc1cccc([C@@H](C)Nc2nc(C)c(-c3nc4c(C5CC5)nccc4s3)c(N[C@@H]3C[C@H](CO)[C@@H](O)[C@H]3O)n2)c1 [Example 4933] | < 0.5
8 | Cc1nc(NCc2ccccc2F)nc(N[C@@H]2C[C@H](CO)[C@@H](O)[C@H]2O)c1-c1nc2c(C3CC3)nccc2s1 [Example 4901] | < 0.5
9 | Cc1nc(N[C@H](C)c2ccc(OC(F)(F)F)cc2)nc(N[C@@H]2C[C@H](C(=O)Nc3ccncc3)[C@@H](O)[C@H]2O)c1-c1nc2c(C3CC3)nccc2s1 [Example 4955] | < 0.5
10 | Cc1nc(N[C@H](C)C2CC2)nc(N[C@@H]2C[C@H](C(=O)N3CCOCC3)[C@@H](O)[C@H]2O)c1-c1nc2c(C3CC3)nccc2s1 [Example 4923] | < 0.5

same assay, conditions: Hepatitis C virus; HCV Replicon assay, EC90 given as numeric bound, Table VI; read-out: EC90

Row | Structure (SMILES) | EC90 [µM]
11 | Cc1nc(N[C@H](C)c2c(F)c(F)c(C)c(F)c2F)nc(NC2(CO)CCCC2)c1-c1nc2c(C3CC3)nccc2s1 [Example 5128] | > 1

same assay, conditions: Hepatitis C virus; HCV Replicon assay, EC90 range, Table VI; read-out: EC90

Row | Structure (SMILES) | EC90 [µM]
12 | CCO[C@H]1C[C@H](CNc2nc(C)c(-c3nc4c(C5CC5)nccc4s3)c(N[C@@H]3C[C@H](CO)[C@@H](O)[C@H]3O)n2)C1 [Example 5298] | < 0.5
13 | CO[C@H](C)CNc1nc(C)c(-c2nc3c(C)nccc3s2)c(N[C@@H]2C[C@H](CC(C)(C)O)[C@@H](O)[C@H]2O)n1 [Example 5311] | < 0.5
14 | Cc1nc(NCC2CCC2)nc(N[C@@H]2C[C@H](C(F)F)[C@@H](O)[C@H]2O)c1-c1nc2c(C3CC3)nccc2s1 [Example 5185] | < 0.5
15 | CCS[C@H](C)CNc1nc(C)c(-c2nc3c(C)nccc3s2)c(N[C@@H]2C[C@H](C(C)(C)O)[C@@H](O)[C@H]2O)n1 [Example 5255] | < 0.5
16 | CO[C@@H](CNc1nc(C)c(-c2nc3c(C)nccc3s2)c(N[C@@H]2C[C@H](C(C)(C)O)[C@@H](O)[C@H]2O)n1)c1ccccc1 [Example 5135] | < 0.5
17 | COCCNc1nc(C)c(-c2nc3c(C)nccc3s2)c(N[C@@H]2C[C@H](C(C)(C)NS(C)(=O)=O)[C@@H](O)[C@H]2O)n1 [Example 5036] | < 0.5
18 | Cc1nc(NCCCOCC(F)(F)F)nc(N[C@@H]2C[C@H](C(C)(C)O)[C@@H](O)[C@H]2O)c1-c1nc2c(C)nccc2s1 [Example 5208] | < 0.5
19 | Cc1nc(NCC(C)(C)C)nc(N[C@@H]2C[C@H](C(C)(F)F)[C@@H](O)[C@H]2O)c1-c1nc2c(C3CC3)nccc2s1 [Example 5176] | < 0.5
20 | Cc1nc(NCC2CC2)nc(N[C@H]2CCC[C@@H]2O)c1-c1nc2c(C)nccc2s1 [Example 5156] | < 0.5
21 | Cc1nc(N)nc(N[C@@H]2C[C@H]([C@@H](O)C(C)C)[C@@H](O)[C@H]2O)c1-c1nc2c(C)nccc2s1 [Example 5125] | < 0.5
22 | Cc1nc(NCc2c(F)cccc2F)nc(N[C@@H]2C[C@H](NC(=O)NCc3ccccc3F)[C@@H](O)[C@H]2O)c1-c1nc2c(C3CC3)nccc2s1 [Example 5082] | 0.5 to 5
23 | Cc1nc(NCC2CC2)nc(N[C@@H]2C[C@H](C3(O)CC3)[C@@H](O)[C@H]2O)c1-c1nc2c(C)nccc2s1 [Example 5239] | < 0.5
24 | Cc1nc(NCC(C)(C)C)nc(N[C@@H]2C[C@H](C(C)(C)S(C)(=O)=O)[C@@H](O)[C@H]2O)c1-c1nc2c(C3CC3)nccc2s1 [Example 5074] | < 0.5
25 | C#CCCNc1nc(C)c(-c2nc3c(C4CC4)nccc3s2)c(N[C@@H]2C[C@H](CS(C)(=O)=O)[C@@H](O)[C@H]2O)n1 [Example 5015] | < 0.5
26 | Cc1nc(NCC2(O)CCOC2)nc(N[C@@H]2C[C@H](C3(O)CCCC3)[C@@H](O)[C@H]2O)c1-c1nc2c(C)nccc2s1 (stereo partly drawn) [Example 5115] | < 0.5
27 | Cc1nc(NCC(F)(F)C(F)(F)C(F)(F)F)nc(N[C@@H]2C[C@H](C3(O)CCCC3)[C@@H](O)[C@H]2O)c1-c1nc2c(C)nccc2s1 [Example 5113] | 5 to 25

Row | Structure (SMILES) | EC90 [µM]
28 | Cc1nc(NCC(F)(F)F)nc(NC2(CO)CCCC2)c1-c1nc2c(C)nccc2s1 [Example 5116] | < 0.5
29 | CO[C@H]1C[C@H]([C@@H](C)Nc2nc(C)c(-c3nc4c(C5CC5)nccc4s3)c(N[C@@H]3C[C@H](CO)[C@@H](O)[C@H]3O)n2)C1 [Example 5303] | < 0.5
30 | Cc1nc(NC2CC2)nc(N[C@@H]2C[C@H](C(C)C)[C@@H](O)[C@H]2O)c1-c1nc2c(C)nccc2s1 [Example 5285] | < 0.5
31 | Cc1nc(N[C@H](C)C2CC2)nc(N[C@@H]2C[C@H](NC(=O)N(C)C)[C@@H](O)[C@H]2O)c1-c1nc2c(C3CC3)nccc2s1 [Example 5096] | < 0.5
32 | C#CCCNc1nc(C)c(-c2nc3c(C)nccc3s2)c(N[C@@H]2C[C@H](C(C)(C)O)[C@@H](O)[C@H]2O)n1 [Example 5260] | < 0.5
33 | CO[C@H](C)CNc1nc(C)c(-c2nc3c(C)nccc3s2)c(N[C@@H]2C[C@H](COc3cc(F)c(F)cc3F)[C@@H](O)[C@H]2O)n1 [Example 5034] | < 0.5
34 | CO[C@H]1COC[C@@H]1Nc1nc(C)c(-c2nc3c(C)nccc3s2)c(N[C@@H]2C[C@H](C(C)(C)O)[C@@H](O)[C@H]2O)n1 [Example 5218] | < 0.5
35 | Cc1nc(NCC2CC2)nc(N[C@@H]2C[C@H](C(C)(C)S(=O)(=O)c3ccccc3)[C@@H](O)[C@H]2O)c1-c1nc2c(N)nccc2s1 [Example 5080] | < 0.5
36 | Cc1nc(NCC2(C)CC2)nc(N[C@@H]2C[C@H](C(F)F)[C@@H](O)[C@H]2O)c1-c1nc2c(C3CC3)nccc2s1 [Example 5191] | < 0.5
37 | CCCNc1nc(C)c(-c2nc3c(C4CC4)nccc3s2)c(N[C@@H]2C[C@H](C(C)(F)F)[C@@H](O)[C@H]2O)n1 [Example 5174] | < 0.5
38 | Cc1nc(NCC2(O)CCCC2)nc(N[C@H]2C=C[C@@H](CO)C2)c1-c1nc2c(C)nccc2s1 [Example 5158] | < 0.5
39 | Cc1nc(N)nc(N[C@@H]2C[C@H](COc3c(F)cccc3F)[C@@H](O)[C@H]2O)c1-c1nc2c(C)nccc2s1 [Example 5212] | < 0.5
40 | Cc1nc(NCC(F)(F)C(F)(F)F)nc(N[C@@H]2C[C@H](C3(O)CCCC3)[C@@H](O)[C@H]2O)c1-c1nc2c(C)nccc2s1 [Example 5114] | < 0.5
41 | Cc1nc(NCC(F)(F)F)nc(N[C@@H]2C[C@H](C(C)(C)S(=O)(=O)c3ccccc3)[C@@H](O)[C@H]2O)c1-c1nc2c(C)nccc2s1 [Example 5067] | < 0.5
42 | Cc1cc(S(=O)(=O)C[C@H]2C[C@@H](Nc3nc(NCC4CC4)nc(C)c3-c3nc4c(C)nccc4s3)[C@H](O)[C@@H]2O)ccc1F [Example 5008] | < 0.5
